Experimental data taken from ChEMBL document CHEMBL1147794, “Synthesis and evaluation of two 18F-labeled imidazo[1,2-a]pyridine analogues as potential agents for imaging beta-amyloid in Alzheimer's disease” (Bioorg Med Chem Lett, 2006).
pKi: −log10 of the molar value. Calls of active or inactive are those of the source. The rule behind the calls is not given here.

How the values were obtained:
[1] = Lipophilicity, Log P of the compound; type: physicochemical; conditions: octanol/water
[2] = target: Amyloid-beta precursor protein (Homo sapiens, UniProt P05067); assay: Displacement of [125I]IMPY from beta amyloid in human AD cortical tissue
Rhesus monkey [3] = assay: Penetration into iv dosed rhesus monkey blood-brain barrier after 9 mins; type: functional, organism-based; conditions: Macaca mulatta, tested as the 18F-labelled form
Rhesus monkey [4] = assay: Uptake in iv dosed rhesus monkey skull; type: functional, organism-based; conditions: Macaca mulatta; tested as the 18F-labelled form

Amyloid-beta precursor protein, sequence (P05067 whole entry): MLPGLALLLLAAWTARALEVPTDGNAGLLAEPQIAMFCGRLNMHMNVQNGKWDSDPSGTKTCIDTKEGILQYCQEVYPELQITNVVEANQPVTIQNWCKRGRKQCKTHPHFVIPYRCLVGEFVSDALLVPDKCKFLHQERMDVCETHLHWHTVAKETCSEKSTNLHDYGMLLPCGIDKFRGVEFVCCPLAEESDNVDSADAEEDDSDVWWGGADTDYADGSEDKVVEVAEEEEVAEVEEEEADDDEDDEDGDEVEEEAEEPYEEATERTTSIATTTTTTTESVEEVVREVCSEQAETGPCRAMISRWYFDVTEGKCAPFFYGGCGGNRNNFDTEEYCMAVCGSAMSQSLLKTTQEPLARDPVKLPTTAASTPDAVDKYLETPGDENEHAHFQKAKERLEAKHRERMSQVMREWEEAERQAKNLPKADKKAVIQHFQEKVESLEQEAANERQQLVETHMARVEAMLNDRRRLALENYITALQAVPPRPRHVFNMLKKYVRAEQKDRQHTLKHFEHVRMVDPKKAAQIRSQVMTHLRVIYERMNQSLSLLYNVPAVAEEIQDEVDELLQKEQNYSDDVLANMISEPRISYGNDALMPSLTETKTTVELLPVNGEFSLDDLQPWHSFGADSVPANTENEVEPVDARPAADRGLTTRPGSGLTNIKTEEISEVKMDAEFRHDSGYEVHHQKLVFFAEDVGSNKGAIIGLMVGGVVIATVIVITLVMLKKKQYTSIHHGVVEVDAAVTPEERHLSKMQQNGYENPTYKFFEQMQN

| logP [1] | pKi [2] | Structure (SMILES) | Activity (Rhesus monkey [3]) | Activity (Rhesus monkey [4]) |
| --- | --- | --- | --- | --- |
| 2.42 | 6.75 | CN(C)c1ccc(-c2cn3cc(CCF)ccc3n2)cc1 | – | – |
| 2.84 | 7.32 | CN(C)c1ccc(-c2cn3cc(CCCF)ccc3n2)cc1 | Active | inactive |
| 3.58 | – | CN(C)c1ccc(-c2cn3cc(I)ccc3n2)cc1 | – | – |
